The results in this text go back to ChEMBL document CHEMBL1122834, “Synthesis and in vitro pharmacology of 7-oxabicyclo[2.2.1]heptane analogues of thromboxane A2/PGH2” (J Med Chem, 1985).

For test [1], the species on record is Homo sapiens. The experiment in a line: Inhibitory activity against aggregation of human platelet induced by adenosine diphosphate. The test is classed as functional.
The species named for test [2] is Homo sapiens. The test is described as follows: Inhibitory activity against aggregation of human platelet induced by arachidonic acid. In kind it is functional. To be noted: read-out: I50.
Test [3] is filed under the species Homo sapiens. The test is described as follows: Inhibitory activity against aggregation of human platelet induced by epinephrine 1. The test is classed as functional.
The species named for test [4] is Homo sapiens. The experiment in a line: Inhibitory activity against aggregation of human platelet induced by epinephrine 2. In kind it is functional.
The target in test [5] is T1, Thromboxane-A synthase (Homo sapiens, UniProt P24557).
T1 sequence (P24557 whole entry): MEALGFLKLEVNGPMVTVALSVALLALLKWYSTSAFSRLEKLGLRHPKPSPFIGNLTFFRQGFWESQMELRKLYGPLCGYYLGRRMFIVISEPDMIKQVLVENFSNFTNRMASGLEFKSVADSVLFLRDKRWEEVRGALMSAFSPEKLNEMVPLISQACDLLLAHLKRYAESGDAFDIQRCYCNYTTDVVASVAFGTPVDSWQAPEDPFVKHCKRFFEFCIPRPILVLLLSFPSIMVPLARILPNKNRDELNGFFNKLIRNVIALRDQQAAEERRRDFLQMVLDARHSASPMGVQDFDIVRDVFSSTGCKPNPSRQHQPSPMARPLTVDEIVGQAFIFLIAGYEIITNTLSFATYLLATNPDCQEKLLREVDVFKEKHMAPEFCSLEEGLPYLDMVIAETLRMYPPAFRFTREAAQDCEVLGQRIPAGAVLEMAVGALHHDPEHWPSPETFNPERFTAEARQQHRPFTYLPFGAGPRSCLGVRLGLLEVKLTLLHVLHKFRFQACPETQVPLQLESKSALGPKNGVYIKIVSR
The test is described as follows: Inhibition of human platelet Thromboxane synthetase. To be noted: read-out: I50.

Test [6] is filed under the species Cavia porcellus. The test is described as follows: Selectivity against 9,11-AZO-PGH2 induced contractions of smooth muscle guinea pig trachea. In kind it is functional.
Test [7] is filed under the species Cavia porcellus. The experiment in a line: Selectivity against histamine in smooth muscle of guinea pig trachea stimulated with histamine. In kind it is functional. Particulars: Muscle tissue.
The species named for the next test is Rattus norvegicus. The experiment in a line: Direct effect on rat stomach strip (RSS) preparation. In kind it is functional.
Test [8] is filed under the species Homo sapiens. The test is described as follows: Stimulatory activity against aggregation of human platelet induced by adenosine diphosphate. The test is classed as functional.
The species entered for test [9] is Homo sapiens. The experiment in a line: Stimulatory activity against aggregation of human platelet induced by arachidonic acid. In kind it is functional.
The species entered for test [10] is Homo sapiens. The test is described as follows: Stimulatory activity against aggregation of human platelet induced by epinephrine 1. In kind it is functional.
Test [11] is filed under the species Homo sapiens. The test is described as follows: Stimulatory activity against aggregation of human platelet induced by epinephrine 2. The test is classed as functional.
The species entered for test [12] is Homo sapiens. The test is described as follows: stimulatory activity against aggregation of human platelet induced by epinephrine 2. In kind it is functional.
The species named for test [13] is Homo sapiens. The experiment in a line: stimulatory activity against aggregation of human platelet induced by adenosine diphosphate. In kind it is functional.
The species named for test [14] is Homo sapiens. The test is described as follows: stimulatory activity against aggregation of human platelet induced by arachidonic acid. In kind it is functional.
The species named for test [15] is Homo sapiens. The experiment in a line: stimulatory activity against aggregation of human platelet induced by epinephrine 1. The test is classed as functional.
The target of test [16] is T2, Thromboxane-A synthase (Homo sapiens) (UniProt P24557).
T2 sequence (whole entry): T1 sequence (P24557 whole entry)
To be noted: 1000 uM.
Description: Inhibitory activity against human platelet Thromboxane synthetase at a dose of 1000 uM

The target of test [17] is T1, Thromboxane-A synthase. The test is described as follows: Inhibitory activity against human platelet Thromboxane synthetase. To be noted: read-out: I 50.

With `CCCCC[C@H](O)/C=C/[C@@H]1C2CCC(O2)[C@@H]1C/C=C\CCCC(=O)O` (stereo in doubt; 2c), the IC50 in the test listed under Homo sapiens [1] (read-out: I50) was greater than 1000 µM; in the test filed under Homo sapiens [2] it was 310 µM; in the test filed under Homo sapiens [3] (Homo sapiens, read-out: I50), greater than 1000 µM; in the test filed under Homo sapiens [4] (Homo sapiens, read-out: I50) it was 6 µM; at Thromboxane-A synthase [5] it was greater than 1000 µM.
Consider `CCCCC[C@@H](O)/C=C/[C@H]1C2CCC(O2)[C@H]1C/C=C\CCCC(=O)O` (stereo in doubt; 2b), for which the IC50 is greater than 10 µM in the test filed under Cavia porcellus [6] (read-out: I50); greater than 10 µM in the test listed under Cavia porcellus [7] (read-out: I50); greater than 1000 µM in the test filed under Homo sapiens [1] (Homo sapiens, read-out: I50); 360 µM in the test filed under Homo sapiens [2]; greater than 1000 µM in the test filed under Homo sapiens [3] (Homo sapiens, read-out: I50); 130 µM in the test listed under Homo sapiens [4] (Homo sapiens, read-out: I50). In addition, the IC50 on Thromboxane-A synthase [5] was greater than 1000 µM. In the test filed under Rattus norvegicus, this compound returned an A50 greater than 10 µM.
`CCCCC[C@H](O)/C=C/[C@H]1C2CCC(O2)[C@H]1C/C=C\CCCC(=O)O` (stereo partly specified): the IC50 in the test filed under Cavia porcellus [6] (read-out: I50) is 2.1 µM; in the test listed under Cavia porcellus [7] (read-out: I50), greater than 10 µM; in the test listed under Homo sapiens [1] (Homo sapiens, read-out: I50), greater than 1000 µM; in the test filed under Homo sapiens [2] (Homo sapiens), 9.2 µM; in the test filed under Homo sapiens [3] (Homo sapiens, read-out: I50) it was greater than 1000 µM; in the test filed under Homo sapiens [4] (Homo sapiens, read-out: I50) it was 0.6 µM. Besides, on Thromboxane-A synthase [5], the IC50 is greater than 1000 µM. Moreover, the A50 worked out at 20 µM in the test listed under Homo sapiens [8]; 20 µM in the test listed under Homo sapiens [9]; 20 µM in the test listed under Homo sapiens [10]; 20 µM in the test listed under Homo sapiens [11]; 0.22 µM in the test filed under Rattus norvegicus.
On to `CCCCC[C@@H](O)/C=C/[C@@H]1C2CCC(O2)[C@@H]1C/C=C\CCCC(=O)O` (stereo in doubt; 2d), for which the IC50 in the test listed under Homo sapiens [1] (Homo sapiens, read-out: I50) is greater than 1000 µM; in the test listed under Homo sapiens [2] (Homo sapiens), 140 µM; on Thromboxane-A synthase [5], 560 µM.
In the case of `CCCCC[C@@H](O)/C=C/[C@H]1C2CCC(O2)[C@H]1C/C=C\CCCC(=O)O` (stereo in doubt; 3d), the IC50 worked out at 93 µM in the test listed under Homo sapiens [2] and 170 µM in the test listed under Homo sapiens [4] (read-out: I50).
With `CCCCC[C@H](O)/C=C/[C@@H]1C2CCC(O2)[C@@H]1C/C=C\CCCC(=O)O` (stereo in doubt; 3b), the IC50 is 0.12 µM in the test filed under Cavia porcellus [6] (read-out: I50); greater than 10 µM in the test filed under Cavia porcellus [7] (read-out: I50); 310 µM in the test filed under Homo sapiens [1] (read-out: I50); 0.6 µM in the test filed under Homo sapiens [2]; 670 µM in the test listed under Homo sapiens [3] (read-out: I50); 7.5 µM in the test listed under Homo sapiens [4] (read-out: I50). In addition, on Thromboxane-A synthase [5], the IC50 was 1000 µM. The same compound displayed an A50 in the test filed under Rattus norvegicus of 0.4 µM.
For the compound `CCCCC[C@@H](O)/C=C/[C@@H]1C2CCC(O2)[C@@H]1C/C=C\CCCC(=O)O` (stereo in doubt; 3a), the IC50 was greater than 10 µM in the test listed under Cavia porcellus [6] (read-out: I50), greater than 10 µM in the test listed under Cavia porcellus [7] (read-out: I50) and 1000 µM on Thromboxane-A synthase [5]. Moreover, the A50 came out at 2 µM in the test listed under Homo sapiens [12]; 2 µM in the test filed under Homo sapiens [13]; 2 µM in the test listed under Homo sapiens [14]; 2 µM in the test listed under Homo sapiens [15]; 0.0015 µM in the test listed under Rattus norvegicus.
Take `CCCCC[C@H](O)/C=C/[C@@H]1C2CCC(O2)[C@H]1C/C=C\CCCC(=O)O` (stereo partly specified): the IC50 came to 0.34 µM in the test filed under Cavia porcellus [6] (read-out: I50); 2.4 µM in the test filed under Cavia porcellus [7] (read-out: I50); 1.6 µM in the test filed under Homo sapiens [1] (Homo sapiens, read-out: I50); 0.3 µM in the test listed under Homo sapiens [2] (Homo sapiens); 2.2 µM in the test filed under Homo sapiens [3] (Homo sapiens, read-out: I50); 4.2 µM in the test listed under Homo sapiens [4] (Homo sapiens, read-out: I50). Further, at Thromboxane-A synthase [5], the IC50 amounted to 1000 µM. Further, the A50 turned out to be 30 µM in the test listed under Homo sapiens [8]; 30 µM in the test filed under Homo sapiens [9]; 30 µM in the test listed under Homo sapiens [10]; 30 µM in the test listed under Homo sapiens [11]; 2.9 µM in the test filed under Rattus norvegicus.
Regarding `CCCCC[C@@H](O)/C=C/[C@H]1C2CCC(O2)[C@@H]1C/C=C\CCCC(=O)O` (stereo in doubt; 4d), the IC50 in the test filed under Homo sapiens [1] (Homo sapiens, read-out: I50) is greater than 1000 µM; in the test listed under Homo sapiens [2], 1000 µM; in the test filed under Homo sapiens [3] (Homo sapiens, read-out: I50), 670 µM; in the test filed under Homo sapiens [4] (read-out: I50) it was 140 µM; on Thromboxane-A synthase [5], 470 µM.
A word on the inhibition: it is the share of the control response that was lost under treatment. A higher inhibition goes with strong suppression. `CCCCC[C@H](O)/C=C/[C@H]1C2CCC(O2)[C@@H]1C/C=C\CCCC(=O)O` (stereo partly specified): the IC50 in the test listed under Cavia porcellus [6] (read-out: I50) was 2.2 µM; in the test listed under Cavia porcellus [7] (read-out: I50), greater than 10 µM; in the test filed under Homo sapiens [1] (Homo sapiens, read-out: I50) it was greater than 1000 µM; in the test filed under Homo sapiens [2] (Homo sapiens) it was 23 µM; in the test listed under Homo sapiens [3] (Homo sapiens, read-out: I50) it was greater than 1000 µM; in the test filed under Homo sapiens [4] (Homo sapiens, read-out: I50), 56 µM. Further, on Thromboxane-A synthase [5], the IC50 is greater than 1000 µM. For the same compound, the A50 in the test filed under Homo sapiens [8] was 0.26 µM; in the test filed under Homo sapiens [9], 0.26 µM; in the test listed under Homo sapiens [10] it was 0.26 µM; in the test listed under Homo sapiens [11], 0.26 µM; in the test listed under Rattus norvegicus it was 0.0009 µM. This compound also returned an inhibition in test [16] of 71%.
Turning to `CCCCC[C@@H](O)/C=C/[C@H]1C2CCC(O2)[C@@H]1C/C=C\CCCC(=O)O` (stereo in doubt; 5b), the IC50 in the test filed under Cavia porcellus [6] (read-out: I50) was 4.9 µM; in the test filed under Cavia porcellus [7] (read-out: I50), greater than 10 µM; in the test filed under Homo sapiens [2], 9.5 µM; in the test listed under Homo sapiens [3] (read-out: I50), greater than 1000 µM; in the test listed under Homo sapiens [4] (read-out: I50) it was 0.7 µM; on Thromboxane-A synthase [5], greater than 1000 µM. In the test filed under Rattus norvegicus, this compound displayed an A50 of 0.88 µM.
Turning to `CCCCC[C@@H](O)/C=C/[C@@H]1C2CCC(O2)[C@H]1C/C=C\CCCC(=O)O` (stereo in doubt; 5d), the IC50 in the test listed under Homo sapiens [1] (Homo sapiens, read-out: I50) is greater than 1000 µM; in the test filed under Homo sapiens [2] it was 95 µM; in the test filed under Homo sapiens [3] (Homo sapiens, read-out: I50), greater than 1000 µM; in the test listed under Homo sapiens [4] (Homo sapiens, read-out: I50), 52 µM; at Thromboxane-A synthase [5] it was greater than 1000 µM.
Turning to `CCCCC[C@@H](O)/C=C/[C@@H]1C2CCC(O2)[C@H]1C/C=C\CCCC(=O)O` (stereo in doubt; 4a), the IC50 in the test listed under Cavia porcellus [6] (read-out: I 50) was 65 µM; in the test filed under Cavia porcellus [7] (read-out: I 50) it was greater than 10 µM; in the test filed under Homo sapiens [1] (read-out: I 50), 150 µM; in the test filed under Homo sapiens [2] it was 4.2 µM; in the test filed under Homo sapiens [3] (read-out: I 50), greater than 1000 µM; in the test listed under Homo sapiens [4] (read-out: I 50) it was 10 µM. For the same compound, the IC50 on Thromboxane-A synthase [17] was 770 µM. The compound also came in with an A50 in the test listed under Rattus norvegicus of 0.51 µM.
